Measured values published in patent publication US20220024980A1, “LIPO-GLYCOPEPTIDE CLEAVABLE DERIVATIVES AND USES THEREOF” (INSMED INCORPORATED, priority 2018, published 2022).
Converted amounts (≈) assume the structure as drawn.

System: MRSA (USA300 ATCC BAA-1556)
Test: Minimum inhibitory concentrations against MRSA by broth microdilution
Format: cell-based, Staphylococcus aureus
Conditions: Mueller Hinton II broth with 0.002% (v/v) Polysorbate-, compound = scaffold with R′ and R″ (table column)
Description: Example 7—Minimum Inhibitory Concentrations Against MRSA Determined Using Broth Microdilution
In vitro activities were determined using CLSJ-guided broth susceptibility testing to measure drug minimum inhibitory concentrations (MICs) of compounds against MRSA (USA300 ATCC BAA-1556). The test medium used for the MIC assay was Mueller Hinton II broth made with 0.002% (v/v) Polysorbate-. Media was prepared fresh on the day of testing and stored according to guidelines from CLSJ.

Row | MIC [µg/mL] | Compound
1 | 0.031 (≈ 0.0185 µM) | CCCCCCCCCCCCNC(=O)CNC1(C)CC(OC2C(Oc3c4cc5cc3Oc3ccc(cc3Cl)C(O)C3NC(=O)C(NC(=O)C5NC(=O)C(CC(N)=O)NC(=O)C(NC(=O)C(CC(C)C)NC)C(O)c5ccc(c(Cl)c5)O4)c4ccc(O)c(c4)-c4c(O)cc(O)cc4C(C(=O)O)NC3=O)OC(CO)C(O)C2O)OC(C)C1O (centres unmarked) [RV95 (R″ = H)]
2 | 0.016 (≈ 0.00955 µM) | CCCCCCCCCCCC(=O)NCCNC1(C)CC(OC2C(Oc3c4cc5cc3Oc3ccc(cc3Cl)C(O)C3NC(=O)C(NC(=O)C5NC(=O)C(CC(N)=O)NC(=O)C(NC(=O)C(CC(C)C)NC)C(O)c5ccc(c(Cl)c5)O4)c4ccc(O)c(c4)-c4c(O)cc(O)cc4C(C(=O)O)NC3=O)OC(CO)C(O)C2O)OC(C)C1O (centres unmarked) [RV62 (R″ = H)]
